Data reported in patent US20240293558A1, “KRAS INHIBITOR CONJUGATES” (Erasca, Inc., priority 2021, published 2024).
Like-named read-outs stand apart in the source and are kept apart here.

How the values were obtained:
KRAS 4B G12C protein = target: T1, KRAS 4B G12C protein (Homo sapiens, UniProt P01116, G12C); assay: In vitro covalent adduct formation (CAF) assay, LC-MS; type: binding; details: 5 μM KRAS 4B G12C, 10 μM compound, 22° C.
T1 construct: made in house; host or cells: E. coli BL21
Description: This Example provides a protocol for assessing covalent adduct formation (CAF) between the compounds provided herein and KRAS.
In vitro covalent adduct formation assay: Covalent adduct formation (CAF) reactions between Cys12 of the KRAS 4B G12C protein and embodiments of the application were measured in vitro using liquid chromatography-mass spectrometry (LC-MS).
Recombinant Human KRAS 4B protein containing the G12C mutation was used in compound screening experiments. This protein contained 188 amino acids in total, including an N-terminal 6-Histidine tag, followed by a Tobacco Etch Virus (TEV) tag, followed by residues 1-169 of the native KRAS 4B sequence. The exact mass of the protein was 21,310 Da as determined by mass spectrometry. […]
The recombinant protein was expressed in E. coli BL21 cells and purified using affinity chromatography via a Ni-NTA column. […] The intact mass of the protein samples was measured by LC-MS using a QExactive+mass spectrometer (Thermo Scientific). An amount of 500 ng total protein was injected onto a C8 reverse phase column, eluted with a seven-minute gradient of 30%-90% acetonitrile/0.10% formic acid, and analyzed for intact mass by the mass spectrometer. Adducts identified were confirmed to be within 1 Dalton of the expected mass, and the relative ratios of free:adduct protein were used to quantify the percentage of protein bound by the compound. […]

KRAS G12D [1] = target: T2, KRAS G12D (Homo sapiens, UniProt P01116, G12D); assay: In-vitro RAS-RAF binding assay (RRB), HTRF/FRET; type: biochemical; set-up: Biotinylated KRAS protein amino acids 1-169 (produced at Erasca); made in house; details: read-out: Inhibition of RAS-RAF Binding (in-vitro) KRAS (G12D) IC50
Procedure, shortened: (§1)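 Compounds preincubated with terbium-labelled biotinylated KRAS (aa 1-169, 30 nM) before 60 min SOS1-catalysed exchange to GTPgS. Binding of the d2-labelled cRAF RBD (30 nM) is read as FRET at equilibrium in duplicate. Buffer: 50 mM HEPES pH 7.5, 100 mM NaCl, 1 mM MgCl2, 1 mM DTT.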

KRAS G12D [2] = target: T2, KRAS G12D; assay: Degradation of KRas G12D in AsPC-1 cells, Western blot; type: cell-based; set-up: endogenous in cells; host or cells: AsPC-1 (ATCC CRL-1682); details: for Dmax: ASPC1; for Dmax / DC50: AsPc-1 cell line after 24 h treatment; for KRAS G12D degradation (Western blot), result in words: AsPC-1 cells, FIGS. 1-5
Description: This Example illustrates that the compounds presented herein degrade KRAS G12D.
AsPC-1 cells (ATCC CRL-1682) expressing G12D were grown in RPMI-1640 medium supplemented with 10% fetal bovine serum, and Penicillin/Streptomycin. Cell were plated in 6-well tissue culture plates at a density of 1 million cells/well and allowed to attach for overnight. Diluted compounds were then added in a final concentration of 0.2% DMSO. After 24 hour treatment, the medium was removed, and the plate was washed three times with ice-cold PBS. 50ul of the RIPA cell lysis buffer (ThermoFisher 89901) supplemented with protease inhibitor (Roche 4693116001) and Phosphatase Cocktail A and B inhibitor (Bimake B15002; Bimake Houston TX) was added to each well, the adherent cells were scratched off, and transferred into pre-cold centrifuge tubes. After vigorous vortex, the tubes were incubated on ice for 30 minutes, centrifuged 14,000 rpm for 10 min at 4° C., and the supernatant were transferred into fresh tubes kept on ice. The protein concentration of the supernatant was determined with bicinchoninic acid method (BCA) (ThermoFisher 23227). Samples were prepared to the final concentration of 30ug in 20ul using NuPAGE LDS Sample Buffer (Invitrogen NP0007), NuPAGE Sample Reducing Agent (Invitrogen NP0009), and RIPA cell lysis buffer, and boiled at 95° C. for 15 minutes in water bath.
The levels of KRAS protein and phosphorylated ERK1/2 were determined by Western blotting. 20 μL of protein sample mixture was loaded into each well of 1.5 mm 4-12% Bis-Tris gel (Invitrogen NP0335), and run at 80V in stacking gel and 120 V in separating gel for about 2 h in MOPS running buffer (Invitrogen NP0001). The gel was transferred to the membrane (20V, 7 min) with Invitrogen iBlot2, and blocked with Li-Cor blocking buffer (LI-COR 927-60001; Li-Cor Biotechnology, Lincoln NE) for at least 1 h at room temperature. Primary antibodies diluted in the blocking buffer were added and incubated at 4° C. overnight. As the primary antibodies, KRAS (Proteintech 12063-1-AP), G12D Mutant Specific KRAS (Cell Signaling Technology 14429S), ERKI1/2 (Cell Signaling Technology 4695S), Phospho-ERKI1/2 (Cell Signaling Technology 4370S), and GAPDH (Millipore MAB374) were used. The membrane was washed 4 times with TBST (0.10% Tween20®; ThermoFisher 28360) for 5 minutes at room temperature, then incubated with Li-Cor anti-rabbit-800 (LI-COR 926-68070) and anti-mouse-680 (LI-COR-926-32211) diluted in Li-Cor blocking buffer with the ratio of 1:15,000 to visualize the primary antibodies for 1 hour at room temperature. Then membrane was washed 4 times with TBST (0.1% Tween20) 5 minutes. The signal intensities of bands were quantified by Li-Cor Odyssey CLX.
The KRas and phosphor-ERK1/2 signals were normalized to the GAPDH signal for each lane and percent of DMSO values were calculated to determine the degradation of KRas and the inhibition of ERK1/2 phosphorylation upon the compound treatment.

KRAS (WT) = target: T3, KRAS (WT) (Homo sapiens, UniProt P01116); assay: In-vitro RAS-RAF binding assay (RRB), HTRF/FRET; type: biochemical; details: read-out: Inhibition of RAS-RAF Binding (in-vitro) KRAS (WT) IC50
T3 construct: Biotinylated KRAS protein amino acids 1-169 (produced at Erasca); made in house
Procedure, shortened: as §1

[3] = Table 2, average of multiple runs of each compound

Structure (SMILES)	% CAF at 5 min (KRAS 4B G12C protein) [%]	IC50 (KRAS G12D [1]; Table 1) [nM]	IC50 (KRAS G12D [1]; [3]) [nM]	Dmax (KRAS G12D [2]) [%]	KRAS G12D degradation (Western blot), result in words (KRAS G12D [2])	DC50 (KRAS G12D [2]) [nM]	IC50 (KRAS (WT); Table 1) [nM]	IC50 (KRAS (WT); [3]) [nM]
C=CC(=O)N1CCN(c2nc(OCCN3CCC(COc4cc([C@H](C(=O)N5C[C@H](O)C[C@H]5C(=O)N[C@@H](C)c5ccc(-c6c(F)cccc6F)cc5)C(C)C)on4)CC3)nc3c(F)c(-c4nc(N)cc(C)c4C(F)(F)F)c(Cl)cc23)[C@@H](C)C1 (atropisomer, axis not shown) [Example 200, (2S,4R)-1-((R)-2-(3-((1-(2-((4-((S)-4-acryloyl-2-methylpiperazin-1-yl)-7-((R)-6-amino-4-methyl-3-(trifluoromethyl)pyridin-2-yl)-6-chloro-8-fluoroquinazolin-2-yl)oxy)ethyl)piperidin-4-yl)methoxy)isoxazol-5-yl)-3-methylbutanoyl)-N—((S)-1-(2′,6′-difluoro-[1,1′-biphenyl]-4-yl)ethyl)-4-hydroxypyrrolidine-2-carboxamide]	97							
Cc1ncsc1-c1ccc([C@H](C)NC(=O)[C@@H]2C[C@@H](O)CN2C(=O)[C@@H](NC(=O)CCOCCCN2CCC[C@H]2COc2nc(N3CC4CCC(C3)N4)c3cnc(-c4cc(O)cc5cccc(F)c45)c(F)c3n2)C(C)(C)C)cc1 [Example 6, (2S,4R)-1-[(2S)-2-[3-[3-[(2S)-2-[[4-(3,8-diazabicyclo[3.2.1]octan-3-yl)-8-fluoro-7-(8-fluoro-3-hydroxy-1-naphthyl)pyrido[4,3-d]pyrimidin-2-yl]oxymethyl]pyrrolidin-1-yl]propoxy]propanoylamino]-3,3-dimethyl-butanoyl]-4-hydroxy-N-[(1S)-1-[4-(4-methylthiazol-5-yl)phenyl]ethyl]pyrrolidine-2-carboxamide]		9.5	8.21	95	Favorable results	255	126	158
Cc1ncsc1-c1ccc([C@H](C)NC(=O)[C@@H]2C[C@@H](O)CN2C(=O)[C@@H](NC(=O)CCCCN2CCC[C@H]2COc2nc(N3CC4CCC(C3)N4)c3cc(Cl)c(-c4ccc(F)c5sc(N)nc45)c(F)c3n2)C(C)(C)C)cc1 [Example 7, (2S,4R)-1-[(2S)-2-[5-[(2S)-2-[[7-(2-amino-7-fluoro-1,3-benzothiazol-4-yl)-6-chloro-4-(3,8-diazabicyclo[3.2.1]octan-3-yl)-8-fluoro-quinazolin-2-yl]oxymethyl]pyrrolidin-1-yl]pentanoylamino]-3,3-dimethyl-butanoyl]-4-hydroxy-N-[(1S)-1-[4-(4-methylthiazol-5-yl)phenyl]ethyl]pyrrolidine-2-carboxamide]		12	12.4		Favorable results		448	448
Cc1ncsc1-c1ccc([C@H](C)NC(=O)[C@@H]2C[C@@H](O)CN2C(=O)[C@@H](NC(=O)CCOCCCN2CCC[C@H]2COc2nc(N3CC4CCC(C3)N4)c3cc(Cl)c(-c4ccc(F)c5sc(N)nc45)c(F)c3n2)C(C)(C)C)cc1 [Example 4, (2S,4R)-1-[(2S)-2-[3-[3-[(2S)-2-[[7-(2-amino-7-fluoro-1,3-benzothiazol-4-yl)-6-chloro-4-(3,8-diazabicyclo[3.2.1]octan-3-yl)-8-fluoro-quinazolin-2-yl]oxymethyl]pyrrolidin-1-yl]propoxy]propanoylamino]-3,3-dimethylbutanoyl]-4-hydroxy-N-[(1S)-1-[4-(4-methylthiazol-5-yl)phenyl]ethyl]pyrrolidine-2-carboxamide]		13	15.1		successful degradation		134	216
Cc1ncsc1-c1ccc([C@H](CO)NC(=O)[C@@H]2C[C@@H](O)CN2C(=O)[C@@H](NC(=O)CCOCCCN2CCC[C@H]2COc2nc(N3CC4CCC(C3)N4)c3cc(Cl)c(-c4ccc(F)c5sc(N)c(C#N)c45)c(F)c3n2)C(C)(C)C)cc1 [Example 9, (2S,4R)-1-[(2S)-2-[3-[3-[(2S)-2-[[7-(2-amino-3-cyano-7-fluoro-benzothiophen-4-yl)-6-chloro-4-(3,8-diazabicyclo[3.2.1]octan-3-yl)-8-fluoro-quinazolin-2-yl]oxymethyl]pyrrolidin-1-yl]propoxy]propanoylamino]-3,3-dimethyl-butanoyl]-4-hydroxy-N-[(1R)-2-hydroxy-1-[4-(4-methylthiazol-5-yl)phenyl]ethyl]pyrrolidine-2-carboxamide]		13.8	13.8	95	Favorable results	183	49.5	49.5
